Legend:
[1] = tested on: HDACs (HeLa nuclear extract); experiment: HDAC deacetylation inhibition assay, HeLa nuclear extract with BOC-Ac-Lys-AMC substrate; format: biochemical, human; settings: BOC-Ac-Lys-AMC substrate; for HDAC inhibition (%): compound at 100 µM; for IC50: read-out: IC50 values, HeLa nuclear extract
Method: With these N^ɛ-acetyl lysine derivatives in hand (schemes 1–3), we then did the pilot screening for general HDAC inhibitory activity at a compound's concentration of 100 µM. All tested compounds were subjected to the inhibition assay against the HDAC deacetylation reaction by using a HeLa nuclear extract as a source of HDACs and BOC-Ac-Lys-AMC as a substrate.
HDACS inhibition assay in vitro
In vitro HDACs inhibition assays were conducted as previously described. In brief, 4 μL of […]
(1μL), then fluorogenic substrate Boc-Lys(acetyl)-AMC (100 μM) and Buffer A (50 mM Tis-HCl pH=8.0, 150 mM NaCl, 30 mM KCl, 10 mM MgCl2) were added. After incubation at 37℃ for 1h, […]
And then incubation at 37℃ for 1h, the mixture was stopped by the addition of 50 μL of Buffer B (200mM HCl/300 mM Acetic acid), fluorescence intensity was measured using a microplate reader at excitation and emission wavelengths of 360 nm and 460 nm. The inhibition ratios were calculated from the fluorescence intensity readings of tested wells relative to those of control wells, […]
regression analysis of the concentration/inhibition data. All experiments were done in triplicate. […]

[2] = target: T1, HDAC8 (Homo sapiens, UniProt Q9BY41); experiment: HDAC subtype selectivity assay with subtype substrate, HDAC8; format: biochemical; settings: read-out: HDAC Inhibition (%) HDAC8
T1 construct: Hela nuclear extract; endogenous in cells; host or cells: HeLa nuclear extract
T1 sequence (Q9BY41 1-377): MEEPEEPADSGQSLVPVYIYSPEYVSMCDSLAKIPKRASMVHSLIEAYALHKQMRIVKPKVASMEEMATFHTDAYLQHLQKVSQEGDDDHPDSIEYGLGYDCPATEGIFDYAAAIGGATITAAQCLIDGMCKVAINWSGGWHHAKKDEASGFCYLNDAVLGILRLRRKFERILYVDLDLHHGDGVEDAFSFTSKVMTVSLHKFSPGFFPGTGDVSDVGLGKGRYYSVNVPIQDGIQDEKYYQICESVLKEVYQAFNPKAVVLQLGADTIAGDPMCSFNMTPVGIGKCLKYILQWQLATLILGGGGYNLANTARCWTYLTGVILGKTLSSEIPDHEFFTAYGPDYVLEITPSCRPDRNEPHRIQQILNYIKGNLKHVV

[3] = tested on: HEK293; experiment: MTS cell proliferation assay, HEK293 (non-cancerous kidney cell); format: cell-based; settings: Homo sapiens, HEK293; MTS assay, 48 hours; normal cells
Method: (§1) Because of the great anti-tumour potential of HDAC inhibitors, we did the antiproliferative evaluation of 18c against K562 cells, A549 cells and HepG2 cells using MTS assay as previously described. […]
(§2) The rate of cell survival under the action of test substances was evaluated by an improved MTS assay as previously described. In brief, A549 (5000 cells / well) , HepG2 (5000 cells / well), HEK293 (5000 cells / well) and K562 (1 ×10^4 cells/well) cell lines were seeded into 96-well plates in 100 µL medium. After overnight incubation, each well was added with different […]
(§3) 48 hours 5ul of MTS reagent solution was added into each well and the cells were incubated for another 4 hours at 37℃ under 5% CO2 environment. The absorbance was measured at 490 nm in […]
(§4) a Microplate to determine the cell viability. The absorbance was directly proportional to the number of viable cells. All experiments were done in triplicate. […]
(§5) calculate and compare their selective index. […]
(§6) Unbound antibodies

[4] = tested on: K562 cells; experiment: MTS cell proliferation assay, K562; format: cell-based, human
Method: as §1, §2, §3, §4, §5, §6

[5] = tested on: HepG2 cells; experiment: MTS cell proliferation assay, HepG2; format: cell-based, human
Method: as §1, §2, §3, §4, §5, §6

[6] = tested on: A549 cells; experiment: MTS cell proliferation assay, A549; format: cell-based, human
Method: as §1, §2, §3, §4, §5, §6

[7] = Homo sapiens, MTS assay, 48 hours

Structure (SMILES) | HDAC inhibition (%) [1] | other results
O=C(N[C@@H](CCCCNC(=O)c1ccco1)C(=O)Nc1ccccc1)OCc1ccccc1 [Compound 14e] | 54.0 ± 1.9% | –
O=C(N[C@@H](CCCCNC(=O)c1ccc2ncccc2c1)C(=O)Nc1ccccc1)OCc1ccccc1 [Compound 14i] | 36.8 ± 1.1% | –
COC(=O)CCCCC(=O)NCCCC[C@H](NC(=O)OCc1ccccc1)C(=O)Nc1ccccc1 [Compound 15b] | 2.9 ± 0.8% | –
O=C(O)CCCCC(=O)NCCCC[C@H](NC(=O)OCc1ccccc1)C(=O)Nc1ccccc1 [Compound 16b] | 4.3 ± 0.5% | –
Nc1ccccc1NC(=O)CC(=O)NCCCC[C@H](NC(=O)OCc1ccccc1)C(=O)Nc1ccccc1 [Compound 17a] | 7.0 ± 0.4% | –
O=C(N[C@@H](CCCCNC(=O)c1csc2ccccc12)C(=O)Nc1ccccc1)OCc1ccccc1 [Compound 14n] | 16.2 ± 2.0% | –
Nc1ccccc1NC(=O)CCC(=O)NCCCC[C@H](NC(=O)OCc1ccccc1)C(=O)Nc1ccccc1 [Compound 12] | 30.7 ± 3.7% | –
O=C(O)CCC(=O)NCCCC[C@H](NC(=O)OCc1ccccc1)C(=O)Nc1ccccc1 [Compound 9] | 37.5 ± 0.6% | –
O=C(N[C@@H](CCCCNC(=O)c1cccnc1)C(=O)Nc1ccccc1)OCc1ccccc1 [Compound 14a] | 39.6 ± 0.4% | –
O=C(CCCCCCC(=O)Nc1ccccc1)NO [SAHA (1), Vorinostat, reference compound] | – | inhibition at 1 µM [2]: 41.19 ± 0.18%
O=C(O)/C=C/C(=O)NCCCC[C@H](NC(=O)OCc1ccccc1)C(=O)Nc1ccccc1 [Compound 10] | 38.7 ± 1.0% | –
COC(=O)CCCCCCC(=O)NCCCC[C@H](NC(=O)OCc1ccccc1)C(=O)Nc1ccccc1 [Compound 15c] | 7.1 ± 0.3% | –
O=C(O)CCCCCCC(=O)NCCCC[C@H](NC(=O)OCc1ccccc1)C(=O)Nc1ccccc1 [Compound 16c] | 1.1 ± 0.4% | IC50 [3]: > 500 µM; antiproliferative activity ([4]; 500 µM, MTS): no obvious antiproliferative activities; IC50 [4, 7]: > 500 µM; antiproliferative activity ([5]; 500 µM, MTS): no obvious antiproliferative activities; IC50 [5, 7]: > 500 µM; antiproliferative activity ([6]; 500 µM, MTS): no obvious antiproliferative activities; IC50 [6, 7]: > 500 µM
O=C(CCC(=O)NCCCC[C@H](NC(=O)OCc1ccccc1)C(=O)Nc1ccccc1)NO [Compound 11] | 86.0 ± 3.0% | IC50 [1]: 25.4 ± 1.35 µM
Nc1ccccc1NC(=O)CCCCCCC(=O)NCCCC[C@H](NC(=O)OCc1ccccc1)C(=O)Nc1ccccc1 [Compound 17c] | 50.6 ± 6.9% | –
O=C(/C=C/c1cccnc1)NCCCC[C@H](NC(=O)OCc1ccccc1)C(=O)Nc1ccccc1 [Compound 14c] | 51.0 ± 1.0% | –
O=C(CCCCC(=O)NCCCC[C@H](NC(=O)OCc1ccccc1)C(=O)Nc1ccccc1)NO [Compound 18b] | 99.9 ± 0.9% | IC50 [1]: 10.4 ± 3.86 µM

Structure (SMILES) | HDAC inhibition (%) [1] | other results
O=C(O)CC(=O)NCCCC[C@H](NC(=O)OCc1ccccc1)C(=O)Nc1ccccc1 [Compound 16a] | 4.0 ± 1.7% | –
O=C(N[C@@H](CCCCNCc1c[nH]c2ccccc12)C(=O)Nc1ccccc1)OCc1ccccc1 [Compound 14l] | 3.1 ± 0.5% | –
O=C(N[C@@H](CCCCNC(=O)c1ccc[nH]1)C(=O)Nc1ccccc1)OCc1ccccc1 [Compound 14d] | 48.4 ± 4.4% | –
O=C(N[C@@H](CCCCNC(=O)c1cnc2ccccc2c1)C(=O)Nc1ccccc1)OCc1ccccc1 [Compound 14h] | 28.3 ± 4.6% | –
Cc1ccc(C(=O)NCCCC[C@H](NC(=O)OCc2ccccc2)C(=O)Nc2ccccc2)cn1 [Compound 14b] | 39.2 ± 0.8% | –
O=C(N[C@@H](CCCCNC(=O)c1coc2ccccc12)C(=O)Nc1ccccc1)OCc1ccccc1 [Compound 14m] | 14.3 ± 0.5% | –
O=C(N[C@@H](CCCCNC(=O)c1c[nH]c2ccccc12)C(=O)Nc1ccccc1)OCc1ccccc1 [Compound 14j] | 12.2 ± 6.5% | –
CC(C)(C)OC(=O)N[C@@H](Cc1c[nH]c2ccccc12)C(=O)NCCCC[C@H](NC(=O)OCc1ccccc1)C(=O)Nc1ccccc1 [Compound 14p] | 24.7 ± 2.8% | –
Nc1ccccc1NC(=O)CCCCC(=O)NCCCC[C@H](NC(=O)OCc1ccccc1)C(=O)Nc1ccccc1 [Compound 17b] | 69.3 ± 3.4% | –
O=C(N[C@@H](CCCCNC(=O)C1=CCc2ccccc21)C(=O)Nc1ccccc1)OCc1ccccc1 [Compound 14k] | 22.4 ± 0.2% | –
COC(=O)CC(=O)NCCCC[C@H](NC(=O)OCc1ccccc1)C(=O)Nc1ccccc1 [Compound 15a] | 19.4 ± 10.9% | –
O=C(CC1SC(=O)NC1=O)NCCCC[C@H](NC(=O)OCc1ccccc1)C(=O)Nc1ccccc1 (stereo partly drawn) [Compound 14o] | 48.6 ± 0.5% | –
O=C(CS)NCCCC[C@H](NC(=O)OCc1ccccc1)C(=O)Nc1ccccc1 [Compound 14g] | 10.3 ± 4.9% | –
O=C(/C=C/C(=O)NCCCC[C@H](NC(=O)OCc1ccccc1)C(=O)Nc1ccccc1)NO [Compound 13] | 39.3 ± 3.1% | –
O=C(N[C@@H](CCCCNC(=O)c1cccs1)C(=O)Nc1ccccc1)OCc1ccccc1 [Compound 14f] | 45.0 ± 0.4% | –
N[C@@H](Cc1c[nH]c2ccccc12)C(=O)NCCCC[C@H](NC(=O)OCc1ccccc1)C(=O)Nc1ccccc1 [Compound 14q] | 36.2 ± 0.4% | –
